Source: paper PMC12019328, “Discovery of an ApoE4-targeted small-molecule SirT1 enhancer for the treatment of Alzheimer’s disease” (Scientific Reports, 2025)
“And” between values parts separate entries of the source, which are not always exact repeats. Equal entries are not always repeated.

Legend:
[1] = Liver microsome stability; type: in vitro ADME; conditions: pH 7.4; human liver microsomes 0.5 mg/mL, NADPH, 37 °C; read-out: Microsomal stability t1/2
Description: page 6: A03 DDL-214 Figure S3B. SirT1 protein levels in N2a-E4 cells after A03 and DDL-214 treatment. Compound treatment was done at 5 and 50 µM. SirT1 levels were measured by AlphaLISA followed and normalized to protein concentration DDL-218 Physiochemical Properties Physiochemical properties of DDL-218 are shown in Table S2. Brain Tissue Binding [fu,bound (%)] Brain tissue was homogenized in PBS (pH 7.4) (1: 3 weight(mg)/volume(µL)) and the protein concentration of was determined using the Micro BCA™ Protein Assay Kit (Thermo Fisher Scientific, Cat#23235). Brain homogenate was diluted to 20 mg/mL in PBS (pH 7.4) and added to Slide-A-Lyzer™ MINI Dialysis Devices, 10K MWCO dialysis cups (Thermo Fisher Scientific, Cat#PI88401) in 48-well plate containing PBS (500 µL; pH 7.4). 1 µL of 1 mM compound was added to the brain homogenate (Final Concentration: 2 µM compound, 0.5% DMSO) and incubated on a rocker for 4.5 hours at 37 °C. […] The % of the unbound drug (fu,bound) was calculated using the following equation: fu,bound = [normalized peak area in buffer side / normalized peak area in brain side] x 100 Liver Microsome Stability [t1/2 (min)] […] An aliquot (50 µL) of each supernatant was analyzed by LC-MS/MS. […] Aliquots (50 µL) of supernatant were analyzed by LC-MS/MS to create the standard curve. […]

[2] = In vivo pharmacokinetic analysis, brain levels after oral gavage; set-up: species or system C57BL/6J mice; conditions: single time point one hour, oral gavage 30 mg/Kg, n = 1; 30 mg/kg
Description: […] One hour later, mice were euthanized by pentobarbital over-anesthesia and trans-cardial collection of blood for isolation of plasma by centrifugation at 10,000 x g for 10 min at 4 °C. Brain tissue was collected for analysis, frozen on dry ice and stored at -80 °C before analysis.
For LC/MS/MS analysis, tissue samples were homogenized in a bead beater using 5 volumes of ice-cold 80% acetonitrile (1/5; mg of tissue/ µL of 80% ACN). Solutions were clarified by centrifugation (16,000 x g, 5 min) and the supernatants were transferred to new tubes and lyophilized. Samples were reconstituted in 100 µL of 50/50/0.1 (water/acetonitrile/formic acid) before analysis via liquid chromatography-tandem mass spectrometry.
A 6460 triple quadrupole mass spectrometer (Agilent Technologies) coupled to a 1290 Infinity HPLC system (Agilent Technologies) with a Phenomenex analytical column (Kinetex 1.7 μm C18 100 Å 100 × 2.1 mm) was used for HPLC. The HPLC method utilized a mixture of solvent A (99.9/1 water/formic acid) and solvent B (99.9/1 acetonitrile/formic acid) and a gradient was used for the elution of the compounds (min/%B: 0/20, 3/20, 19/99, 20/99, 21/20, 30/20).
An internal standard (IS; Reserpine) was added to every sample to account for compound loss during sample processing. Standards were made in drug naïve brain and plasma with increasing amounts of DDL-214- (S1,S2: 0.1 pmol/ S3,S4: 1 pmol/ S5,S6: 10 pmol/ S7,S8: 100 pmol/ S9,S10: 1000 pmol). The standard curve was made by plotting the amount of each compound per standard vs. the ratio of measured chromatographic peak areas corresponding to DDL-214 (DDL-214 -/Reserpine). The trendline equation was then used to calculate the absolute concentrations of DDL-214/-218/-219 in brain tissue and plasma.

**Q.** Which half-life [1] does the source give for CC(N)C(=O)OC(C)(C)Cc1ccncc1 (centres unmarked) [DDL-218] here?
**A.** > 2.33 h

**Q.** And the brain levels [2]?
**A.** ~ 8400 ng/g and 37.8 µM
